Measured values as given in patent US10650228B2, “Devices and methods for analyzing animal behavior” (Children's Medical Center Corporation, priority 2015, dated 2020).

How the values were obtained:
[1] = tested on: mice; test: FTIR-generated paw luminance after intraplantar injection of capsaicin to the left hind paw; assay type: in vivo; details: 180 minutes after intraplantar injection (5 μl, 0.1%) to the left hind paw; FIG. 14B
Protocol: FIG. 14C illustrates that the luminance values of left and right hind paws are no different in naïve mice 0-30 minutes after being placed in chamber.

[2] = tested on: mouse; test: FTIR imaging of weight bearing after experimental induction of inflammatory pain in the left hind paw; assay type: in vivo; details: mouse with induced inflammation in left hind paw, analgesic given before FTIR imaging; FIG. 8 at right
From the text: FIG. 8 illustrates examples of FTIR recordings that detect analgesic efficacy, with great sensitivity. […] For example, the FTIR images are brighter in areas where there is greater relative pressure exerted by the hind paw than in areas where there is less relative pressure exerted.

| SMILES | FTIR paw luminance (weight bearing), uninjured right vs injected left hind paw [1] | weight shift to the uninjured leg (FTIR imaging, analgesic efficacy) [2] |
| --- | --- | --- |
| COc1cc(CNC(=O)CCCC/C=C/C(C)C)ccc1O [capsaicin] | significantly increased luminance (weight bearing) in the uninjured (right) paw compared to the capsaicin-injected left paw |  |
| O=C(O)Cc1ccccc1Nc1c(Cl)cccc1Cl [diclofenac] |  | does not shift its weight to the uninjured leg |
